US20210220450A1, “TREATMENT OF AN IOP CONDITION” (The Research Foundation for The State University of New York, priority 2013, published 2021)

Key:
[1] = tested on: sheep of the Coriedale breed; experiment: Steroid-induced IOP elevation in sheep, tPA injected into the anterior chamber (Example 9); assay type: in vivo
Experimental: Methods. Lyophilized tPA, obtained as Acetilyse® from Boehringer Ingelheim S. A. (Buenos Aires) containing arginine, was used. Five sheep of the Coriedale breed were selected. Initially all eyes received instillation of 1% prednisolone 3 times/day for 10 days to elevate their IOP from 10 mm Hg to about 23 mm Hg. Then, 0.0001 μg was injected into one of the eyes and its effect was followed for up to 55:00 hrs while the instillation of prednisolone continued in both eyes. The same protocol was implemented for the 0.001 and 0.01 μg amounts (after extended washout) in the contra lateral eyes. Arginine, which is associated with 0.01 ug tPA, was injected alone and had no effect.

C57BL/6J mice = experiment: Outflow facility in TA and protein treated C57BL/6J mouse eyes (Example 13); assay type: in vivo; settings: TA five days before intravitreal protein (2 μl, 5 μg/μl); two days after injection
Experimental: C57BL/6J mice were divided into two groups:
1) Animals receiving bilateral steroid (TA) injection subconjunctivally five days prior to protein injection (FIG. 10b) and 2) Animals not receiving subconjunctival steroids (FIG. 10c).
(§1) 1) Animals that received unilateral intravitreal injection with 2 μl of tPA (5 μg/μl, Actilyse; Boehringer Ingelheim, Ingelheim am Rhein, Germany) while the contralateral eye received 2 μl of BSA (5 μg/μl; Gold Biotechnology, St Louis, Mo., USA), and 2) Animals that received unilateral intravitreal injections with 2 μl of non-enzymatically active tPA (NE-tPA/S478A-tPA) (5 μg/μl; Innovative Research, Novi, Mich., USA) while the contralateral eye received 2 μl of BSA. Animals were euthanized two days after intravitreal injection.
(§2) Outflow facility determination: Mouse eyes were enucleated immediately after euthanasia. Outflow facility was determined using a constant pressure method, as previously described. Pressure was raised in steps of 4 cmH2O, from 8 cmH2O (5.88 mmHg) to 32 cmH2O (23.54 mmHg) by increasing the height of a column of fluid of BSS. […] Flow was constantly measured via a microfluidic flow sensor (0.07-1.5 uL/min, MFS1; Elveflow, Paris, France). […] Any eyes that developed visible leaks during outflow facility determination, or that had pressure-flow correlations with R^2<0.9, were excluded from analysis but were used for RNA quantification.

PlatKO mice = experiment: Outflow facility in protein treated PlatKO mouse eyes (Example 14); assay type: in vivo; settings: intravitreal protein
Experimental: PlatKO and Mmp-9KO mice were also not given steroids prior to protein injections (FIG. 10c). Within each cohort, animals were divided into two groups:
as §1
as §2, with “BSS. Steady state was initially achieved after 10 minutes.” for “BSS.”

Mmp-2, Mmp-9, Mmp-13 = experiment: Mmp expression in Tg-MYOCY437H angle ring tissue (Example 19); assay type: in vivo, mouse; settings: vs BSA treated eyes
Experimental: Eyes were flash frozen in liquid nitrogen after outflow facility determination and subsequently dissected on ice to obtain the angle ring tissues containing the TM, as previously described (Kumar, Shah et al. 2013). Dissected TM tissues were immersed in RNAlater solution (Invitrogen, Waltham, Mass., USA) and then snap-frozen and stored at −80° C. until RNA extraction. Tissue collected was pooled (four eyes) and homogenized in TRIzol reagent for RNA isolation, per manufacturer's instructions (Life Technologies, Carlsbad, Calif., USA). RNA concentration was determined with a Nanodrop ND-1000 Spectrophotometer (Thermo Scientific, Wilmington, Del., USA). cDNA was synthesized by using High-Capacity cDNA Reverse Transcription Kit (Applied Biosystems, Waltham, Mass., USA) according to manufacturer's protocol. Quantitative real-time PCR (qRT-PCR) was performed by using Green-2-Go qPCR Mastermix-ROX (Bio Basic, Amherst, N.Y., USA) on a QuantStudio 6 Flex thermal cycler (Applied Biosystems, Carlsbad, Calif., USA). mRNA expression of Plat, Plau, Pai-1, Mmp-2, Mmp-9, and Mmp-13 in angle ring tissues was determined. Primers were designed by using Primer-BLAST (https://www.ncbi.nlm.nih.gov/tools/primer-blast/index.cgi?LINK_LOC=BlastHome; in the public domain); primer sequences are listed in Table 2. Primer specificity was confirmed by agarose gel electrophoresis and multiple-sized amplification products were absent on inspection of melting curves. Target mRNA expression values were normalized to the expression levels of Rps11 (ribosomal protein S11). The relative fold change was calculated by using the ΔΔCt method (Hu, Wang et al. 2015). Outliers identified via the Thompson Tau test were removed from analysis.

[2] = intravitreal use; toxicity attributed to arginine in commercial preparations; cited from earlier work

tissue plasminogen activator [tPA]
effect on IOP ([1]; 0.0001 μg into the AC, IOP 23.0 mm Hg at 6:00 and 30:00 hrs): had no effect | IOP ([1]; 0.001 μg into the AC, 6:00 hr, from 23.1): 18.6 mmHg | IOP ([1]; 0.001 μg into the AC, 30:00 hr): 22.3 mm Hg | IOP ([1]; 0.01 μg into the AC, 6:00 hrs, baseline 23.4): 14.2 mm Hg | IOP ([1]; 0.01 μg into the AC, 30:00 hrs): 19.0 mm Hg | IOP ([1]; 0.01 μg into the AC, 48:00 hrs): 20.9 mm Hg | IOP ([1]; 0.01 μg into the AC, 55:00 hrs): 22.3 mm Hg | effect on IOP ([1]; single dose of 1 μg of tPA injected intracamerally): reduction in IOP | outflow facility, mean±standard deviation (C57BL/6J mice): 105.3±35.8×10^−5 μl/min/mmHg | increase in outflow facility compared to BSA treated eyes (PlatKO mice): 46% | outflow facility, mean±standard deviation (PlatKO mice; no steroid, two days): 89±27×10^−5 μl/min/mmHg | Mmp-2 expression (Mmp-2, Mmp-9, Mmp-13; 2 days): no significant difference | Mmp-9 expression (Mmp-2, Mmp-9, Mmp-13; 2 days): not detected | Mmp-13 expression (Mmp-2, Mmp-9, Mmp-13; 2 days): significantly higher | Mmp-2 expression (Mmp-2, Mmp-9, Mmp-13; 5 days): no significant difference | Mmp-9 expression (Mmp-2, Mmp-9, Mmp-13; 5 days): higher | Mmp-13 expression (Mmp-2, Mmp-9, Mmp-13; 5 days): significantly higher | doses with reported retinal toxicity [2]: 50 to 100 µg
